Data published in PMC8279484 (Journal of Medicinal Chemistry, 2021).

System: NF-κB
Test: TNF-α-induced NF-κB reporter (pNF-κB-SEAP) assay in vSMCs
Format: cell-based, mouse
Settings: (R)-6 1 nM, TNF-α 1 ng/mL 24 h; TNF-α alone 5-fold
Method: Mouse primary vascular SMCs were cultured at 37 °C in a humidified atmosphere of 95% air/5% CO2 and maintained in Dulbecco’s modified Eagle’s medium (DMEM; Life Technologies) supplemented with 25 mmol/L glucose with 10% (v/v) FBS. For treatments, media contained only 1% FBS.
NF-κB activity was determined by measuring secreted alkaline phosphatase in the culture supernatant using the SEAP Reporter Gene Assay System (Roche Australia). Cell experiments were performed six to eight times, and the values presented are the mean ± SEM from independent experiments.

CCCCC[C@@H](O)c1nc2ccccc2nc1/C=C/[C@@H](O)[C@@H](O)CCCC(=O)OC [(R)-6, Methyl (5S,6R,E)-5,6-Dihydroxy-8-(3-((R)-1-hydroxyhexyl)quinoxalin-2-yl)oct-7-enoate]
NF-κB activity, fold change relative to vehicle: 3 fold
